Results published in paper PMC10784468 (Nature Communications, 2024).
pIC50: −log10 of the molar value. Positions of bridges follow the written chain, without caps; N, C: chain ends. Residues, ends and D or L forms follow the SMILES beside them. *: point of attachment. X1 = O=C(O)c1ccc(-c2c3nc(c(-c4ccc(C(=O)O)cc4)c4ccc([nH]4)c(-c4ccc(C(=O)*)cc4)c4nc(c(-c5ccc(C(=O)O)cc5)c5ccc2[nH]5)C=C4)C=C3)cc1; X2 = O=C(O)C/C(=C/C(=O)*)C(=O)O

Key:
[1] = target: T1, GPX4 (Homo sapiens, UniProt P36969); assay: Tumor GPX4 activity detection; format: in vivo, BALB/c nude mice; design: from tissue; host or cells: EJ xenograft tumour tissue from BALB/c nude mice
T1 sequence (P36969 1-197): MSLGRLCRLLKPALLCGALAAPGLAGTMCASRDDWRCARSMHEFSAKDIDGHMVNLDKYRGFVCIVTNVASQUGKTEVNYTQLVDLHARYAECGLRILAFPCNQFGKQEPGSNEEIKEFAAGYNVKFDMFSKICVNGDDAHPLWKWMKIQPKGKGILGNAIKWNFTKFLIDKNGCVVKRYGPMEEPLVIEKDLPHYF
Description: (§1) EJ tumor tissues were collected under euthanasia at the end of treatment and washed with PBS for 3 times. Afterwards, the tumor lysates were collected by centrifugation at 5000 rpm for 10 min at 4 °C after lysed by freeze-thaw treatment. Finally, the GPX4 activity were measured with a GPX Assay Kit based on the manufacturer’s instructions.

[2] = ζ-potential in PBS; format: physicochemical
Description: Supplementary Fig. 12. ζ-potential change of Gi-F-CAA (40 μM) in PBS (0.01 M, pH 7.4 or 6.5) (n=3
experimental repeats). Experiment was independently repeated three times with similar results. Values are
(1 picture or pasted object on this page, not shown here)
Supplementary Fig. 13. ζ-potential of NGi-F-CAA, Gi-F and Gi-F-SA (pH 7.4) (40 μM) in PBS (n=3

[3] = tested on: EJ cells; assay: Cytotoxicity assay (CCK-8) on EJ cells; settings: for pIC50: pH 7.4
Description: Initially, EJ cells were seeded into 96 well plates at a density of 5 × 10^3 per well and incubated in a CO2 incubator overnight at 37 °C. Subsequently, Gi-F (pH = 7.4), Gi-F-SA (pH = 7.4), NGi-F-CAA (pH = 7.4), NGi-F-CAA (pH = 6.5), Gi-F-CAA (pH = 7.4) and Gi-F-CAA (pH = 6.5) at different concentrations (1, 2, 4, 8, 16, 32, 64, 128 and 256 μM) was added to the cells and further incubated for 48 h. Finally, the cell viability rate was calculated by (Sample wells-Blank wells)/(Control wells-Blank wells) × 100%.

[4] = tested on: EJ tumor tissues; assay: Tumor MDA content detection; format: in vivo, BALB/c nude mice; settings: for Relative content of MDA: tumor
Description: EJ tumor tissues were collected under euthanasia at the end of treatment and washed with PBS for 3 times. Afterwards, the tumor lysates were collected by centrifugation at 8000 g for 10 min at 4 °C after lysed with Frozen Type Tissuelyser. Finally, the MDA contents were measured by thiobarbituric acid (TBA) reaction with a Malondialdehyde (MDA) Assay Kit (Solarbio Science & Technology Co., Ltd., China, BC0025) based on the manufacturer’s instructions.

[5] = tested on: EJ cells; assay: Intracellular GSH content detection; format: cell-based
Description: Initially, EJ cells (5 × 10^5) were cultured in 6-well plate with a CO2 incubator overnight at 37 °C. […] Next, EJ cells were collected and washed with PBS for 3 times. Afterwards, the cell lysates were collected by centrifugation at 8000 g for 10 min at 4 °C after lysed by freeze-thaw treatment. Finally, the GSH contents were measured with a GSH Assay Kit based on the manufacturer’s instructions.

[6] = tested on: EJ xenograft tumors; assay: In vivo antitumor evaluation in EJ xenograft model (tumor volume, tumor weight, body weight); settings: 8 mg/kg i.v.; for mean tumor volume at 18 days post injection: six injections at 2-days intervals, n = 6; for Tumor weight: six injections, 18 days
Description: Female BALB/c nude mice (~8 weeks, 18 g) were subcutaneously inoculated with 5 × 10^6 EJ cells resuspended in Matrigel. When the tumor size reached about 100 mm^3, EJ tumor-bearing mice were randomly divided into four groups and administrated with PBS, Gi-F (8 mg/kg in 100 μL PBS), Gi-F-SA (8 mg/kg in 100 μL PBS) and Gi-F-CAA (8 mg/kg in 100 μL PBS) by intravenous injection at 2-days intervals for six times. Individual tumor volume and bodyweight of mouse after different treatment was collected at 2-days intervals for analysis. Mice were killed at 18 days post treatment unless endpoints were exceeded. Moreover, tumors from all groups were harvested under euthanasia and weighed for analysis at the end of treatment.

[7] = tested on: EJ xenograft tumor; assay: Penetration assay in tumor frozen sections (Cy labeled)
Description: Firstly, EJ xenograft mice were administrated with Cy labeled Gi-F (8 mg/kg in 100 μL PBS) and Cy labeled Gi-F-CAA (8 mg/kg in 100 μL PBS) by intravenous injection. Afterward, EJ tumor tissues were entirely resected and protected from light. Subsequently, the tumor tissues were fixed with optimum cutting temperature (OCT) compound for 12 h at −20 °C avoiding light. Finally, the fixed tumor tissues were cut into sections and immediately observed with UltraVIEW VoX.

[8] = tested on: EJ tumor tissues; assay: Tumor GSH content detection; format: in vivo, BALB/c nude mice; settings: for Relative content of GSH: tumor
Description: as §1, with “8000” for “5000”, “with Frozen Type Tissuelyser.” for “by freeze-thaw treatment.”, “GSH contents” for “GPX4 activity”, “GSH” for “GPX”

[9] = EJ tumor tissues, 8 mg/kg i.v., versus PBS, Gi-F and Gi-F-SA
[10] = 40 μM in PBS, pH 7.4, mean of n = 3

CC(C)C[C@H](NC(=O)c1ccc(-c2c3nc(c(-c4ccc(C(=O)O)cc4)c4ccc([nH]4)c(-c4ccc(C(=O)O)cc4)c4nc(c(-c5ccc(C(=O)O)cc5)c5ccc2[nH]5)C=C4)C=C3)cc1)C(=O)N[C@@H](CCCCNC(=O)/C=C(/CC(=O)O)C(=O)O)C(=O)N[C@@H](CC(C)C)C(=O)N[C@@H](CCCCN)C(=O)N[C@@H](CC(C)C)C(=O)N[C@@H](CCCCNC(=O)/C=C(/CC(=O)O)C(=O)O)C(=O)NCC(=O)N[C@@H](C)C(=O)N[C@H]1CSSC[C@@H](C(=O)N2CCC[C@H]2C(=O)N[C@H](C(=O)O)C(C)C)NC(=O)[C@@H]2CCCN2C(=O)[C@H](Cc2ccc(O)cc2)NC(=O)[C@H](CC(C)C)NC(=O)[C@@H]2CCCN2C(=O)[C@H](CC(C)C)NC(=O)[C@H](Cc2c[nH]c3ccccc23)NC(=O)[C@H](CC(N)=O)NC1=O [Gi-F-CAA] (X1-LK(X2)LKLK(X2)GACNWLPLYPCPV-OH; disulfide 9-17; C-terminus assumed)
Relative activity of GPX4 ([1]; mice 1): 0.21 | Relative activity of GPX4 ([1]; mice 2): 0.22 | Relative activity of GPX4 ([1]; mice 3): 0.2 | Relative activity of GPX4 ([1]; mice 4): 0.21 | Relative activity of GPX4 ([1]; mice 5): 0.22 | Relative activity of GPX4 ([1]; mice 6): 0.2 | ζ-potential change after incubation at pH 6.5 ([2]; 40 μM in PBS 0.01 M, pH 6.5): increased considerably | Zeta potential (mV) ([2]; pH 6.5, 0 min, mean): -25.5 mV | Zeta potential (mV) ([2]; pH 6.5, 10 min, mean): -19.8 mV | Zeta potential (mV) ([2]; pH 6.5, 30 min, mean): -12.4 mV | Zeta potential (mV) ([2]; pH 6.5, 60 min, mean): -7.6 mV | Zeta potential (mV) ([2]; pH 6.5, 90 min, mean): -6.4 mV | Zeta potential (mV) ([2]; pH 6.5, 120 min, mean): -5.5 mV | Zeta potential (mV) ([2]; pH 7.4, 0 min, mean): -27.3 mV | Zeta potential (mV) ([2]; pH 7.4, 10 min, mean): -25.6 mV | Zeta potential (mV) ([2]; pH 7.4, 30 min, mean): -24.4 mV | Zeta potential (mV) ([2]; pH 7.4, 60 min, mean): -23.4 mV | Zeta potential (mV) ([2]; pH 7.4, 90 min, mean): -22.6 mV | Zeta potential (mV) ([2]; pH 7.4, 120 min, mean): -22.5 mV | cytotoxicity with ferroptosis inhibitor Fer-1 ([3]; EJ cells, pH 6.5, 48 h, Fer-1, Supplementary Fig. 26): successfully rescued by Fer-1 | LPO levels of tumor tissues [4, 9]: elevation | Relative content of MDA ([4]; mice 1): 4.75 | Relative content of MDA ([4]; mice 2): 4.25 | Relative content of MDA ([4]; mice 3): 4.65 | Relative content of MDA ([4]; mice 4): 5.15 | Relative content of MDA ([4]; mice 5): 4.25 | Relative content of MDA ([4]; mice 6): 4.75 | intracellular GSH levels ([5]; EJ cells, pH 6.5, 40 μM, 8 h): substantial reduction of GSH levels | Relative GSH levels ([5]; pH=6.5, replicate #1): 0.188 | Relative GSH levels ([5]; pH=6.5, replicate #2): 0.178 | Relative GSH levels ([5]; pH=6.5, replicate #3): 0.129 | Relative GSH levels ([5]; pH=7.4, replicate #1): 0.657 | Relative GSH levels ([5]; pH=7.4, replicate #2): 0.628 | Relative GSH levels ([5]; pH=7.4, replicate #3): 0.54 | mean tumor volume at 18 days post injection [6]: 552 mm^3 | Tumor weight ([6]; mice 1): 0.398 g | Tumor weight ([6]; mice 2): 0.419 g | Tumor weight ([6]; mice 3): 0.47 g | Tumor weight ([6]; mice 4): 0.318 g | Tumor weight ([6]; mice 5): 0.548 g | Tumor weight ([6]; mice 6): 0.402 g | tumor penetration, fluorescence distribution in tumor sections ([7]; EJ xenograft mice, Cy-labeled, 8 mg/kg i.v.): distributed all over the tumor tissues | GSH levels of tumor tissues [8, 9]: substantial reduction of GSH levels | Relative content of GSH ([8]; mice 1): 0.248 | Relative content of GSH ([8]; mice 2): 0.322 | Relative content of GSH ([8]; mice 3): 0.359 | Relative content of GSH ([8]; mice 4): 0.285 | Relative content of GSH ([8]; mice 5): 0.331 | Relative content of GSH ([8]; mice 6): 0.276

FeTCPP-LKLKLK(SA)GACNWLPLYPCPV (disulfide) [Gi-F-SA, control conjugate decorated with non-sensitive succinic anhydride (SA) moieties]
Relative activity of GPX4 ([1]; mice 1): 0.79 | Relative activity of GPX4 ([1]; mice 2): 0.8 | Relative activity of GPX4 ([1]; mice 3): 0.76 | Relative activity of GPX4 ([1]; mice 4): 0.79 | Relative activity of GPX4 ([1]; mice 5): 0.8 | Relative activity of GPX4 ([1]; mice 6): 0.76 | Zeta potential (mV) [2, 10]: -21.4 mV | pIC50 [3]: 4.40 | Relative content of MDA ([4]; mice 1): 1.35 | Relative content of MDA ([4]; mice 2): 1.45 | Relative content of MDA ([4]; mice 3): 1.2 | Relative content of MDA ([4]; mice 4): 1.75 | Relative content of MDA ([4]; mice 5): 1.45 | Relative content of MDA ([4]; mice 6): 1.3 | Relative GSH levels ([5]; pH=7.4, replicate #1): 0.589 | Relative GSH levels ([5]; pH=7.4, replicate #2): 0.628 | Relative GSH levels ([5]; pH=7.4, replicate #3): 0.53 | mean tumor volume at 18 days post injection [6]: 1204 mm^3 | Tumor weight ([6]; mice 1): 1.819 g | Tumor weight ([6]; mice 2): 1.454 g | Tumor weight ([6]; mice 3): 1.391 g | Tumor weight ([6]; mice 4): 1.595 g | Tumor weight ([6]; mice 5): 1.425 g | Tumor weight ([6]; mice 6): 1.689 g | tumor penetration, fluorescence distribution in tumor sections ([7]; mouse, in vivo, iv, 8 mg/kg): penetrate into the tumor interior, while in a week fluorescence intensity | Relative content of GSH ([8]; mice 1): 0.8 | Relative content of GSH ([8]; mice 2): 0.832 | Relative content of GSH ([8]; mice 3): 0.874 | Relative content of GSH ([8]; mice 4): 0.837 | Relative content of GSH ([8]; mice 5): 0.887 | Relative content of GSH ([8]; mice 6): 0.74

FeTCPP-LKLKLKGACNWLPLYPCPV (disulfide) [Gi-F]
Relative activity of GPX4 ([1]; mice 1): 0.57 | Relative activity of GPX4 ([1]; mice 2): 0.52 | Relative activity of GPX4 ([1]; mice 3): 0.57 | Relative activity of GPX4 ([1]; mice 4): 0.57 | Relative activity of GPX4 ([1]; mice 5): 0.52 | Relative activity of GPX4 ([1]; mice 6): 0.57 | Zeta potential (mV) [2, 10]: -8.4 mV | pIC50 [3]: 4.95 | Relative content of MDA ([4]; mice 1): 2.1 | Relative content of MDA ([4]; mice 2): 2.6 | Relative content of MDA ([4]; mice 3): 2.35 | Relative content of MDA ([4]; mice 4): 2.5 | Relative content of MDA ([4]; mice 5): 2.3 | Relative content of MDA ([4]; mice 6): 2.45 | mean tumor volume at 18 days post injection [6]: 1426 mm^3 | Tumor weight ([6]; mice 1): 1.433 g | Tumor weight ([6]; mice 2): 1.25 g | Tumor weight ([6]; mice 3): 1.087 g | Tumor weight ([6]; mice 4): 1.055 g | Tumor weight ([6]; mice 5): 0.939 g | Tumor weight ([6]; mice 6): 1.259 g | tumor penetration, fluorescence distribution in tumor sections ([7]; mouse, in vivo, iv, 8 mg/kg): only distributed around the periphery of tumor tissues | Relative content of GSH ([8]; mice 1): 0.74 | Relative content of GSH ([8]; mice 2): 0.713 | Relative content of GSH ([8]; mice 3): 0.713 | Relative content of GSH ([8]; mice 4): 0.681 | Relative content of GSH ([8]; mice 5): 0.676 | Relative content of GSH ([8]; mice 6): 0.763
